The text below walks through data of ChEMBL document CHEMBL4495565, “Cytopathic SARS-Cov2 screening on VERO-E6 cells in a large repurposing effort” (2020).

Each structure is given as a SMILES string. Counter-ions that a name gives are not always drawn. Some results are limits rather than exact numbers.

One data set has as its system SARS-CoV-2. Nature of the data set: microbe, parasite or virus in culture. In kind it is functional, organism-based, Chlorocebus sabaeus, Vero C1008. The conditions noted are these: Severe acute respiratory syndrome coronavirus 2, Vero C1008, 48 h.
`C#CCC(Cc1cnc2nc(N)nc(N)c2n1)c1ccc(C(=O)N[C@@H](CCC(=O)O)C(=O)O)cc1` (some centres undefined) [PRALATREXATE] showed a half-maximal inhibitory concentration (IC50) of 0.06 µM.

Test system in the next data set: not listed separately
In words: in vitro. The conditions noted are these: chlorocebus sabaeus, VERO-E6 cells (Vero C1008), uninfected, CC50.
Take `O=C(Nc1ccc(Cl)c(Cl)c1)Nc1ccc(Cl)c(Cl)c1`: the CC50 at 48 h was above 33 µM. On the same count and under the same terms, the figure for `Cc1cc(O[C@@H](CCC(F)(F)F)c2ccc(C(=O)NCCC(=O)O)cc2)cc(C)c1-c1ccc(C(C)(C)C)cc1` [ADOMEGLIVANT] is above 33 µM. With `COc1cc2ncnc(Nc3cccc(Br)c3)c2cc1OC`, the CC50 at 48 h came to 13.2 µM. Still for that read-out and setting: the figure for `CC(C)(C)NCc1ccc(Nc2ccnc3cc(Cl)ccc23)cc1O` [GSK-369796] is 12.4 µM. The same measure, in the same setting: the figure for `Nc1nc2c(ncn2[C@@H]2O[C@H](CO)[C@@H](O)[C@H]2O)c(=S)[nH]1` [THIOGUANOSINE] is above 33 µM; for `COc1cc2c(NC3CCN(C(C)C)CC3)nc(N3CCC(F)(F)CC3)nc2cc1OCCCN1CCCC1` it is above 33 µM; for `CC(C)(Sc1cc(C(C)(C)C)c(O)c(C(C)(C)C)c1)Sc1cc(C(C)(C)C)c(OC(=O)CCC(=O)O)c(C(C)(C)C)c1` [SUCCINOBUCOL] it is 10.2 µM. Consider `N=C(Nc1ccc(I)cc1)NC1C2CC3CC(C2)CC1C3` (centres undefined), for which the CC50 at 48 h is above 33 µM. Still for that read-out and setting: to `Cn1c(Nc2ccc(C(F)(F)F)cc2)nc2cc(Oc3ccnc(-c4ncc(C(F)(F)F)[nH]4)c3)ccc21` [RAF-265] belongs 9.19 µM; to `COc1ccc2c(c1)[C@]1(C[C@H]1c1ccc3c(/C=C/c4ccc(CN5C[C@@H](C)O[C@@H](C)C5)cc4)n[nH]c3c1)C(=O)N2` [OCIFISERTIB], above 33 µM. The same measure, in the same setting: the figure for `Nc1nc(NC[C@H]2CC[C@H](CNS(=O)(=O)c3cccc4ccccc34)CC2)nc2ccccc12` [CGP-71683A] is 4.38 µM; for `O=C(CCCN1CCC2(CC1)C(=O)N(Cc1cccc(F)c1)CN2c1ccccc1)c1ccc(F)cc1` it is 27.4 µM. On the same count and under the same terms, to `Nc1ccc(C(=O)Nc2cccc(-c3nc(N4CCOCC4)c4oc5ncccc5c4n3)c2)cn1` belongs 0.01 µM; to `O=C(Nc1ccc(Cl)cc1)Nc1ccc(Cl)c(Cl)c1` [TRICLOCARBAN], 3.08 µM. As for `C[C@@H]1C[C@@H]([C@H](O)CC2CC(=O)NC(=O)C2)C(=O)[C@@H](C)C1` [CYCLOHEXIMIDE], the CC50 at 48 h came out at 10.2 µM. Still for that read-out and setting: the figure for `O=[N+]([O-])c1ccc(NN=Cc2sc(N3CCOCC3)nc2-c2ccccc2)c(S(=O)(=O)Nc2ccccc2Cl)c1` is 0.43 µM; for `Cn1nc(C(C)(C)C)cc1C(=O)N[C@@H](Cc1cccc(Cl)c1)C(=O)NCC#N` it is 0.03 µM; for `C[C@H]1CCC/C=C/[C@@H]2C[C@H](O)C[C@H]2[C@H](O)/C=C/C(=O)O1` [BREFELDIN A] it is 0.06 µM.

With `CC(C)c1cnn2c(NCc3ccccc3)cc(NCCCCCCN)nc12`, the CC50 at 48 h is above 33 µM. With `Cc1ccc(C(=O)Nc2cccc(C(F)(F)F)c2)cc1Nc1nc(-c2cccnc2)nc2c1cnn2C`, the CC50 at 48 h stood at 0.07 µM. The same measure, in the same setting: the figure for `CC(C)(O)CNc1ncc(-c2ccnc(Nc3ccnc(Cl)c3)n2)c(CC2CC2)n1` is 26.8 µM; for `c1cncc(CN2CCC(n3ncc4c(N5CCOCC5)nc(-c5ccc6[nH]ccc6c5)nc43)CC2)c1` it is 9.55 µM. With `CN1CCN(CC/C=C2\c3ccccc3Sc3ccc(S(=O)(=O)N(C)C)cc32)CC1`, the CC50 at 48 h is above 33 µM. `COc1ccc2cc1Oc1ccc(cc1)C[C@H]1c3cc(c(OC)cc3CCN1C)Oc1c(OC)c(OC)cc3c1[C@H](C2)N(C)CC3` [FANCHININ] came in with a CC50 at 48 h above 33 µM.

`COc1cc2c(N3CCN(C(=O)Nc4ccc(OC(C)C)cc4)CC3)ncnc2cc1OCCCN1CCCCC1` [TANDUTINIB] gave a CC50 at 48 h above 33 µM.

`CC(C)N1CCN(c2ccc(C(=O)c3c(-c4ccc(O)cc4)sc4cc(O)ccc34)cc2)CC1` displayed a CC50 at 48 h above 33 µM.

`COc1cc(NCc2ccc3nc(N)nc(N)c3c2C)cc(OC)c1OC` [TRIMETREXATE]: the CC50 at 48 h was found to be 1.99 µM. Still for that read-out and setting: to `O=C(NCCN1CCC2(CC1)C(=O)NCN2c1cccc(F)c1)c1ccc2ccccc2c1` belongs above 33 µM; to `Cc1c(O)cccc1C(=O)N[C@@H](CSc1ccccc1)[C@H](O)CN1C[C@H]2CCCC[C@H]2C[C@H]1C(=O)NC(C)(C)C` [NELFINAVIR MESYLATE], above 33 µM; to `CCN(CC)CCO[C@H]1CC[C@@]2(C)C(=CC[C@@H]3[C@@H]2CC[C@]2(C)C(=O)CC[C@@H]32)C1`, 3.43 µM. Compound `CCCCN(CCCC)CCC(O)c1cc2c(Cl)cc(Cl)cc2c2cc(C(F)(F)F)ccc12` (centres undefined) [HALOFANTRINE] came in with a CC50 at 48 h above 33 µM. The same measure, in the same setting: to `Oc1c(Cl)cc(Cl)cc1Sc1cc(Cl)cc(Cl)c1O` [BITHIONOL] belongs 9.94 µM. Same read-out and setting: the figure for `CC(C)COCC(CN(Cc1ccccc1)c1ccccc1)N1CCCC1` (centres undefined) is 23.4 µM; for `Cc1nc(N)nc(N)c1-c1ccc(Cl)c(Cl)c1` [METOPRINE] it is 0.12 µM; for `CN(C)C(=O)C(CCN1CCC(O)(c2ccc(Cl)cc2)CC1)(c1ccccc1)c1ccccc1` [LOPERAMIDE] it is above 33 µM. Same read-out and setting: the figure for `O=C1Nc2cc(Br)ccc2/C1=C1/Nc2ccccc2/C1=N\O` [6BIO] is above 33 µM; for `CC1(N2CCC(n3c([C@@H]4CCCNC4)nc4ccccc43)CC2)CCCCCCC1` it is above 33 µM. In turn, `O=C(O)Cc1cccc(OCCCN(Cc2cccc(C(F)(F)F)c2Cl)CC(c2ccccc2)c2ccccc2)c1` displayed a CC50 at 48 h above 33 µM. The same measure, in the same setting: to `Cc1[nH]c(/C=C2\C(=O)Nc3ccc(S(=O)(=O)Cc4c(Cl)cccc4Cl)cc32)c(C)c1C(=O)N1CCC[C@@H]1CN1CCCC1` [PHA-665752] belongs above 33 µM; to `Nc1nc(N)c2nc(CNc3ccc(C(=O)N[C@@H](CCC(=O)O)C(=O)O)cc3)cnc2n1` [AMINOPTERIN], 0.03 µM; to `Cc1ccc(NC(=O)c2ccc(CN3CCN(C)CC3)cc2)cc1Nc1nc(-c2cccnc2)cs1` [MASITINIB], above 33 µM.

`N#Cc1cccc(C#N)c1-c1nc2c3ccc(Cl)cc3c3ccccc3c2[nH]1` came in with a CC50 at 48 h above 33 µM. Same read-out and setting: to `Cn1cc(-c2ccncc2)c(-c2ccc(OCc3ccc4ccccc4n3)cc2)n1` [MARDEPODECT] belongs above 33 µM.

In turn, `CN1CCN(CCCN2c3ccccc3Sc3ccc(C(F)(F)F)cc32)CC1` [TRIFLUOPERAZINE HYDROCHLORIDE] yielded a CC50 at 48 h above 33 µM. Same read-out and setting: to `Nc1ncnc2c1ncn2[C@@H]1CC[C@@H](O)[C@H]1O` belongs 15.7 µM; to `O=S(=O)(NCC1CC1)c1ccc(Nc2nccc(N3CCCc4cc(O)ccc43)n2)cc1`, 0.74 µM. Same read-out and setting: to `COc1ccccc1[C@H](Cn1c(=O)n(C(C)(C)C(=O)O)c(=O)c2c(C)c(-c3ncco3)sc21)OC1CCOCC1` [FIRSOCOSTAT] belongs 0.11 µM. With `Nc1ncc(-c2ccnc(Nc3ccncc3)n2)c(CC2CC2)n1`, the CC50 at 48 h is 2.11 µM.

`Cc1cccc(Nc2nc(-c3ccncc3)cs2)c1`: the CC50 at 48 h was 31.5 µM. Turning to `Nc1ccc2cc3ccc(N)cc3nc2c1` [PROFLAVINE], the CC50 at 48 h amounted to 2.67 µM. Still for that read-out and setting: the figure for `CCN(CC)CCOc1ccc2c(c1)C(=O)c1cc(OCCN(CC)CC)ccc1-2` [TILORONE] is 3.08 µM. The same measure, in the same setting: the figure for `OCCNC1CCCc2c1[nH]c1ccc(-c3ccccc3)cc21` (centres undefined) is above 33 µM.

The data set is the same for the next values; noted with them: chlorocebus sabaeus, vero c1008, CC50.
In turn, `CCN(CC)CCOc1ccc(C(=C(Cl)c2ccccc2)c2ccccc2)cc1` [CLOMIPHENE CITRATE] registered a CC50 at 48 h above 33 µM.

What is called IC50 is the point on the concentration scale where inhibition reaches its midpoint. A higher IC50 goes with weaker potency in that assay.
